Article PMC4158172 (European Journal of Clinical Pharmacology, 2014)
“And” between values parts separate entries of the source, which are not always exact repeats. Identical values can stand only once.

Tests used:
[1] = DTG steady-state plasma pharmacokinetics, interaction with EFV; assay type: in vivo, human; conditions: for Cmax / AUC / concentration at 24 h / Tmax: both sexes, human, oral, fasting; for AUC: read-out: AUC(0–τ); for concentration at 24 h: read-out: C τ; for Tmax: n=12, median (range)
Experimental: There was no washout between treatment periods. All doses were administered in the fasting state. […]

[2] = DTG steady-state plasma pharmacokinetics, interaction with TPV/r
Experimental: Two studies were conducted in healthy volunteer subjects as judged by physical exam, medical history and laboratory testing. These studies are registered with ClinicalTrials.gov (NCT01068925; protocol number ING113096 and NCT01098526; protocol number ING114005). Adult men and women of non-childbearing potential were enrolled. Subjects were excluded if they tested positive for HIV or hepatitis C antibodies or hepatitis B surface antigen. Subjects were not allowed to receive any prescription or non-prescription drugs, including vitamins or herbal products, within 7 days of dosing and throughout the study.
This was a phase I, open-label, single-sequence, three-period, steady-state study. Eighteen subjects received DTG 50 mg q24h for 5 days (period 1). […] There was no washout between treatment periods. All doses were administered with a moderate-fat meal.
Dolutegravir and EFV were measured in plasma samples using validated methods, which consisted of extraction from plasma by protein precipitation with acetonitrile containing [^15N^2H7]dolutegravir or [^2H4]-efavirenz as the internal standards, respectively. The plasma extracts were injected onto a 2.1 × 50 mm 3.5-micron XBridge™ C18 column (Waters Associates, Milford, MA, USA). Dolutegravir was eluted with a mobile phase consisting of 40 % acetonitrile in aqueous 0.1 % formic acid, and EFV was eluted with a mobile phase consisting of acetonitrile/0.1 % formic acid (65 % v/v) in a 5-mM ammonium acetate buffer containing 0.1 % acetic acid (35 % v/v). The eluates were detected by using a Sciex API 4000™ (AB Sciex, Framingham, MA, USA) equipped with a TurboIonSpray® ionisation source with multiple reaction monitoring (DTG positive ion mode m/z 420 > 277; internal standard m/z 428 > 277; EFV negative ion mode m/z 314 > 243; internal standard m/z 318 > 247). Data acquisition and processing were performed with Analyst 1.4.2 software (AB Sciex), and linear regression analysis calculations were performed using the Study Management System, SMS™ 2000 v.2.2 (GlaxoSmithKline, Research Triangle Park, NC, USA). The calibration range for DTG was 0.020 to 20 μg/mL and for EFV was 0.10 to 20 μg/mL. Quality control samples prepared separately at three concentrations were stored with study samples and analysed with each batch of samples against separately prepared calibration standards.
A non-compartmental PK analysis of the concentration-time data was performed with WinNonlin (version 5.2, Pharsight Corporation, Mountain View, CA, USA). Plasma PK parameters for both DTG and EFV were calculated using actual recorded times for each treatment. Parameters that were determined included AUC from time zero to the end of the dosage interval (AUC(0–τ)), maximum observed plasma concentration (C max), the time of maximum observed plasma concentration (T max) and plasma concentration at the end of the dosing interval (C τ).
Statistical analyses were performed on the log-transformed PK parameters: AUC(0–τ), C τ and C max. […] Efavirenz PK data were compared with historical data. Subject was fitted as a random effect and treatment was fitted as a fixed effect in the model. The ratio of geometric least-squares means and associated 90 % confidence intervals were estimated for the PK parameters of interest.

[3] = Plasma metabolic profile of DTG (pooled plasma); assay type: in vivo, human; conditions: individual 24-h proportionally pooled plasma, DTG alone and DTG + EFV
Experimental: (§1) There was no washout between treatment periods. All doses were administered in the fasting state.
(§2) Urine samples were collected at intervals of 0 to 12 hours and 12 to 24 hours after each treatment period. Individual urine pools were produced for each subject in a given treatment group by combining proportional volumes (% of total volume) from the 0- to 12-hours and 12- to 24-hours collections. Individual pooled human plasma samples were prepared for each subject and treatment group.
Each pooled plasma sample was mixed with aqueous EDTA disodium salt solution (10 mg/mL) and subsequently extracted 3 times with methanol and acetonitrile. Pooled urine samples were lyophilised and the residue was reconstituted in water:methanol (90:10 v/v). Drug-related components in plasma extracts and urine samples were separated on a 100 × 4.6 mm 3.5-micron Symmetry C18 column (Waters Associates) at 40°C by a step-gradient elution method with a mobile phase composition of water:acetonitrile containing 0.1% ammonium acetate starting at 95:5 (v/v) and ending at 5:95 (v/v) over 50 minutes. The eluate was analysed by multistage mass spectrometry (MSn) using an LTQ Orbitrap™ Hybrid Mass Spectrometer with Xcalibur 2.07 software (Thermo Fisher Scientific, Bremen, Germany). […]

[4] = Urinary metabolic profile of DTG (pooled urine); assay type: in vivo, human; conditions: pooled urine 0-24 h, n=12, mean (standard deviation)
Experimental: as §1, §2
Each pooled plasma sample was mixed with aqueous EDTA disodium salt solution (10 mg/mL) and subsequently extracted 3 times with methanol and acetonitrile. Pooled urine samples were lyophilised and the residue was reconstituted in water:methanol (90:10 v/v). Drug-related components in plasma extracts and urine samples were separated on a 100 × 4.6 mm 3.5-micron Symmetry C18 column (Waters Associates) at 40°C by a step-gradient elution method with a mobile phase composition of water:acetonitrile containing 0.1% ammonium acetate starting at 95:5 (v/v) and ending at 5:95 (v/v) over 50 minutes. The eluate was analysed by multistage mass spectrometry (MSn) using an LTQ Orbitrap™ Hybrid Mass Spectrometer with Xcalibur 2.07 software (Thermo Fisher Scientific, Bremen, Germany). Data-dependent scanning using an accurate mass list, consisting of all previously characterised metabolites, was used in addition to analysis of pre-dose samples to aid in the distinction of drug-related material from endogenous components.

[5] = system: CYP isozymes; design: method as in PMID 23132334; conditions: in vitro; cited from earlier work
[6] = system: P-glycoprotein (P-gp); design: method as in PMID 23132334; conditions: in vitro; cited from earlier work
[7] = system: BCRP; design: method as in PMID 23132334; conditions: in vitro; cited from earlier work
[8] = system: CYP1A2; design: method as in PMID 23132334; conditions: in vitro; cited from earlier work
[9] = cited from earlier work
[10] = system: CYP3A4; conditions: in vivo; cited from earlier work
[11] = system: OATP1B1; conditions: cited from earlier work
[12] = system: CYP3A4; conditions: cited from earlier work
[13] = plasma, DTG 50 mg + EFV 600 mg q24h for 14 days, n=12, geometric mean (CV%)
[14] = plasma, DTG 50 mg q24h alone for 5 days, n=12, geometric mean (CV%)
[15] = co-administration of EFV 600 mg q24h and DTG 50 mg q24h
[16] = both, human, plasma, oral, 50 mg
[17] = co-administration with TPV/r 500/200 mg q12h

C[C@@H]1CCO[C@H]2Cn3cc(C(=O)NCc4ccc(F)cc4F)c(=O)c(O)c3C(=O)N12 [DTG, Dolutegravir]
GLS mean ratio (90 % CI) of AUC(0–τ) ([1]; DTG+EFV vs DTG alone, n=12): 0.431 (0.346, 0.536)
GLS mean ratio (90 % CI) of C max ([1]; DTG+EFV vs DTG alone, n=12): 0.608 (0.506, 0.730)
GLS mean ratio (90 % CI) of C τ ([1]; DTG+EFV vs DTG alone, n=12): 0.245 (0.179, 0.336)
Cmax ([1]; DTG 50 mg q24h alone for 5 days, healthy subjects n=12, plasma, geometric mean (CV%)): 3080 ng/mL
Cmax [1, 13]: 1870 ng/mL
AUC [1, 13]: 18200 ng·h/mL
concentration at 24 h [1, 13]: 220 ng/mL
Tmax ([1]; plasma, DTG 50 mg + EFV 600 mg q24h for 14 days): 1 h
AUC [1, 14]: 42300 ng·h/mL
concentration at 24 h [1, 14]: 910 ng/mL
Tmax ([1]; plasma, DTG 50 mg q24h alone for 5 days): 2 h
decrease in plasma DTG AUC(0–τ) [1, 15]: 57%
decrease in plasma DTG C max [1, 15]: 39%
decrease in plasma DTG C τ [1, 15]: 75%
GLS mean ratio (90 % CI) of AUC(0–τ) ([2]; DTG+TPV/r vs DTG alone, n=14): 0.409 (0.379, 0.443)
GLS mean ratio (90 % CI) of C max ([2]; DTG+TPV/r vs DTG alone, n=14): 0.535 (0.500, 0.572)
GLS mean ratio (90 % CI) of C τ ([2]; DTG+TPV/r vs DTG alone, n=14): 0.239 (0.212, 0.270)
Tmax ([2]; both, human, in vivo, 50 mg): 3 h
AUC [2, 16]: 64500 ng·h/mL
Cmax [2, 16]: 4530 ng/mL
concentration at 24 h [2, 16]: 1480 ng/mL
decrease in plasma DTG AUC(0–τ) [2, 17]: 59%
decrease in plasma DTG C max [2, 17]: 46%
decrease in plasma DTG C τ [2, 17]: 76% and 75%
share of drug-related material in plasma [3]: > 97%
% DTG ([4]; DTG 50 mg + EFV q24h): 100%
% Total drug-related response ([4]; DTG 50 mg + EFV q24h): 6.2 (5.0) %
% DTG ([4]; DTG 50 mg q24h): 100%
% Total drug-related response ([4]; DTG 50 mg q24h): 6.4 (1.8) %
direct inhibition of CYP isozymes [5]: minimal or no direct inhibition
direct inhibition of P-gp [6]: minimal or no direct inhibition
direct inhibition of BCRP [7]: minimal or no direct inhibition
induction of CYP1A2 [8]: not an inducer
C0 ([9]; DTG 50 mg once daily without inducers, phase III studies in INI-naive populations): approximately 1.2 μg/mL
C0 (equivalent to C τ), geometric mean ([9]; VIKING-3, DTG 50 mg twice daily with EFV and TPV/r in background regimens, n=18, CV 63 %): 1620 ng/mL
C0 higher than with DTG 50 mg once daily without inducers ([9]; VIKING-3, DTG 50 mg twice daily with EFV and TPV/r in background regimens, n=18): 35%
component of metabolism via CYP3A4 [10]: ~10%
direct inhibition of OATP1B1 [11]: minimal or no direct inhibition
induction of CYP3A4 [12]: not an inducer
